Values of other authors as cited in patent US20070135423A1, “E-fluoro-4-(pyridin-2-yl)-piperidine-1-carboxamide derivatives and related compounds which modulate the function of the vanilloid-1 receptor (vr1) for the treatment of pain” (priority 2003, published 2007).

Target: VR1 (Rattus norvegicus, UniProt O35433)
Settings: Wahl et al., Mol. Pharmacol, 59:9, 2001

VR1, sequence (O35433 whole entry): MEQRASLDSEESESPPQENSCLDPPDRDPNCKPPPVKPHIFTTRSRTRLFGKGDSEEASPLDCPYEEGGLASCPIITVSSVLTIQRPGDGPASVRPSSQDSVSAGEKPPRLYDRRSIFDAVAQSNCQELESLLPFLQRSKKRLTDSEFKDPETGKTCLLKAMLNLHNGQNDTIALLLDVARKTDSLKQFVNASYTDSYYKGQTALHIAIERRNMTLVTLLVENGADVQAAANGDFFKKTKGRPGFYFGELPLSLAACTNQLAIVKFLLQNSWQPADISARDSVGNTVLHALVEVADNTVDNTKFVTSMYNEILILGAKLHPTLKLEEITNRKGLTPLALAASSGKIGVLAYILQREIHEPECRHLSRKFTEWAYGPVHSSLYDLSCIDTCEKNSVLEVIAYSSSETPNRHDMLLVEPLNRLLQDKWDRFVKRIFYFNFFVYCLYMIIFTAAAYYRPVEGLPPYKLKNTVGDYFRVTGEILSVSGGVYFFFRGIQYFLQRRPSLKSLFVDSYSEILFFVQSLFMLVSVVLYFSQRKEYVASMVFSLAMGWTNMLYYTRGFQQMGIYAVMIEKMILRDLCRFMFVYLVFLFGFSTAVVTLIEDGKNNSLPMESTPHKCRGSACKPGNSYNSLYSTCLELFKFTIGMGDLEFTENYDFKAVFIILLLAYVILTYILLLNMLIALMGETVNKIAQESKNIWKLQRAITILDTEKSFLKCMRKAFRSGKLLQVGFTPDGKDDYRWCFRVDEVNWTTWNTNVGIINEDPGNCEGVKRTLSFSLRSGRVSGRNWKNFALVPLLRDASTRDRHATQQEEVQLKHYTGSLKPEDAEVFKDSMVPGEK

C=C(C)[C@]12C[C@@H](C)[C@@]34O[C@](Cc5ccccc5)(O[C@@H]1[C@@H]3C=C(COC(=O)Cc1cc(I)c(O)c(OC)c1)C[C@]1(O)C(=O)C(C)=C[C@@H]41)O2 [Iodo-resiniferatoxin]
VR1 antagonist potency (in words): nanomolar antagonist
